Measured values reported in patent US9247750B2, “Polyenylcyclopropanecarboxylic esters with high insecticidal activity” (Endura S.P.A., priority 2007, dated 2016).

Assays:
Assay type in all cases: in vivo
Blattella germanica = experiment: Effectiveness of residual insecticide on surfaces (glazed tiles) against cockroaches (Example 6); conditions: 50 mg/m^2 on glazed tiles; for percentage knock-down after 24 hours: 24 h exposure
Description: Solutions of the compound of example 3 in acetone and, for comparison, of the reference compounds Transfluthrin and Metofluthrin were applied from a distance of 12 cm onto glazed tiles (Ostara model, 15×15 cm=225 cm^2) by means of a suitable glass sprayer, so as to obtain an applied amount of pure compound equal to 50 mg/m^2. After treatment the tiles were transferred to and maintained in a closed test room at controlled temperature and humidity (24-25° C., RH 50-60%). Glass rings (H 5.5 cm×Ø 9.5 cm), with their internal surface treated with talc, and each containing 5 cockroaches, were positioned at the centre of the tiles for each of the assessment times of 24 hours, 3, 7, 10 and 14 days following treatment. For each assessment day, the insects were maintained on the surface for 24 hours and the time (hours, minutes) necessary to attain 100% knock-down followed by death, or percentage knock-down at the end of 24 hours, were recorded.

Aedes aegypti [1] = experiment: Insecticide effectiveness in the vapour phase against mosquitoes, impregnated paper unit in 20 m^3 room (Example 9); conditions: 5 mg/unit; for % mortality 24 h: 24th hour from start of test; for % Knock-down 8 h: at end of 8th hour; for Knock-down time KT10 / Knock-down time KT50 / Knock-down time KT90: average of 3 cages
Description: (§1) Test units consisting of a paper support 20 cm×10 cm in size were impregnated with the compound of examples 3, 7 and 8 and, for comparative purposes, with the reference compounds transfluthrin and metofluthrin, at an amount of 5.00 mg/unit for each compound (pure). Using a common laboratory stand, the test unit was placed at a height of about 30 cm from the ground along one side of a 20 m^3 room (L 3.00 m×D 2.49 m×H 2.69 m). In order to homogenize the insecticidal air within the room, a small electric fan was placed on the floor diagonal to the surface of the unit, in the nearest corner at a distance of about 50 cm from the unit. Three metal cages (L 8.4 cm×Ø 8.0 cm×mesh 1.0 mm) for every mosquito species, each containing 20 3-4 day old individuals of mixed sex, were placed along the other three sides of the room, at a height of 1.80 m from the ground and at a distance of 0.45 m from the respective walls. During the test the room was kept closed and temperature and humidity were controlled (T 23-26° C., RH 49-61%). The fan was switched on and left on for 8 continuous hours. The times needed to reach 10%, 50% and 90% insect knock-down (KT10, KT50 and KT90, respectively) were recorded.
(§2) Every 2 hours and up to the 6th hour after the fan was switched on, new cages were introduced containing insects (set of 3 cages for each species).
(§3) At the end of the 8th hour, the percentage of insects knocked down in all the cages was determined, then the insects were removed from the room and transferred into an uncontaminated atmosphere within closed containers containing a sugary solution. The percentage mortality was recorded at the 24th hour from the start of the test.
(§4) The results obtained are summarized in tables 1 and 2 and the data are averages for the 3 cages.

Culex quinquefasciatus [2] = experiment: as above; conditions: 5 mg/unit; for % mortality 24 h: 24th hour from start of test; for % Knock-down 8 h: at end of 8th hour; for Knock-down time KT10 / Knock-down time KT50 / Knock-down time KT90: average of 3 cages
Description: as §1, §2, §3, §4

Aedes aegypti [3] = experiment: Insecticide effectiveness in the vapour phase against mosquitoes, impregnated paper unit in 20 m^3 room (Example 5); conditions: 5 mg/unit; for % mortality 24 h: 24th hour from start of test; for % Knock-down 8 h: at end of 8th hour; for Knock-down time KT10 / Knock-down time KT50 / Knock-down time KT90: average of 3 cages
Description: (§5) Test units consisting of a paper support 20 cm×10 cm in size were impregnated with the compound of example 3 and, for comparative purposes, with the reference compounds transfluthrin and metofluthrin, at an amount of 5.00 mg/unit for each compound (pure).
(§6) Using a common laboratory stand, the test unit was placed at a height of about 30 cm from the ground along one side of a 20 m^3 room (L 3.00 m×D 2.49 m×H 2.69 m). In order to homogenize the insecticidal air within the room, a small electric fan was placed on the floor diagonal to the surface of the unit, in the is nearest corner at a distance of about 50 cm from the unit. Three metal cages (L 8.4 cm×Ø 8.0 cm×mesh 1.0 mm) for every mosquito species, each containing 20 3-4 day old individuals of mixed sex, were placed along the other three sides of the room, at a height of 1.80 m from the ground and at a distance of 0.45 m from the respective walls. During the test the room was kept closed and temperature and humidity were controlled (T 23-26° C., RH 49-61%).
(§7) The fan was switched on and left on for 8 continuous hours. The times needed to reach 10%, 50% and 90% insect knock-down (KT10, KT50 and KT90, respectively) were recorded.
as §2, §3, §4

Culex quinquefasciatus [4] = experiment: as above; conditions: 5 mg/unit; for % mortality 24 h: 24th hour from start of test; for % Knock-down 8 h: at end of 8th hour; for Knock-down time KT10 / Knock-down time KT50 / Knock-down time KT90: average of 3 cages
Description: as §5, §6, §7, §2, §3, §4

SMILES: CC=CC1C(C(=O)OCc2c(F)c(F)c(COC)c(F)c2F)C1(C)C (centres unmarked) [Metofluthrin, (2,3,5,6-tetrafluoro-4-methoxy-methyl)benzyl-2,2-dimethyl-3-prop-1-enylcyclopropanecarboxylate]
- percentage knock-down after 24 hours (Blattella germanica; 1 day after treatment): 80%*)
- Time to reach 100% knock-down (Blattella germanica; 1 day after treatment, one of the 5 individuals recovered within 24 hours): 2 h (24 h
- percentage knock-down after 24 hours (Blattella germanica; 3 days after treatment): 24 h 40%
- percentage knock-down after 24 hours (Blattella germanica; 7 days after treatment): 24 h 0%
- percentage knock-down after 24 hours (Blattella germanica; 10 days after treatment): 24 h 0%
- % mortality 24 h (Aedes aegypti [1]; insect exposure after 0 hours): 100%
- % Knock-down 8 h (Aedes aegypti [1]; insect exposure after 0 hours): 100%
- Knock-down time KT10 (Aedes aegypti [1]; insect exposure after 0 hours): 16 min
- Knock-down time KT50 (Aedes aegypti [1]; insect exposure after 0 hours): 25 min
- Knock-down time KT90 (Aedes aegypti [1]; insect exposure after 0 hours): 34 min
- % mortality 24 h (Aedes aegypti [1]; insect exposure after 2 hours): 100%
- % Knock-down 8 h (Aedes aegypti [1]; insect exposure after 2 hours): 100%
- Knock-down time KT10 (Aedes aegypti [1]; insect exposure after 2 hours): 7 min
- Knock-down time KT50 (Aedes aegypti [1]; insect exposure after 2 hours): 9 min
- Knock-down time KT90 (Aedes aegypti [1]; insect exposure after 2 hours): 15 min
- % mortality 24 h (Aedes aegypti [1]; insect exposure after 4 hours): 100%
- % Knock-down 8 h (Aedes aegypti [1]; insect exposure after 4 hours): 100%
- Knock-down time KT10 (Aedes aegypti [1]; insect exposure after 4 hours): 6 min
- Knock-down time KT50 (Aedes aegypti [1]; insect exposure after 4 hours): 8 min
- Knock-down time KT90 (Aedes aegypti [1]; insect exposure after 4 hours): 14 min
- % mortality 24 h (Culex quinquefasciatus [2]; insect exposure after 0 hours): 100%
- % Knock-down 8 h (Culex quinquefasciatus [2]; insect exposure after 0 hours): 100%
- Knock-down time KT10 (Culex quinquefasciatus [2]; insect exposure after 0 hours): 22 min
- Knock-down time KT50 (Culex quinquefasciatus [2]; insect exposure after 0 hours): 32 min
- Knock-down time KT90 (Culex quinquefasciatus [2]; insect exposure after 0 hours): 36 min
- % mortality 24 h (Culex quinquefasciatus [2]; insect exposure after 2 hours): 100%
- % Knock-down 8 h (Culex quinquefasciatus [2]; insect exposure after 2 hours): 100%
- Knock-down time KT10 (Culex quinquefasciatus [2]; insect exposure after 2 hours): 11 min
- Knock-down time KT50 (Culex quinquefasciatus [2]; insect exposure after 2 hours): 16 min
- Knock-down time KT90 (Culex quinquefasciatus [2]; insect exposure after 2 hours): 22 min
- % mortality 24 h (Culex quinquefasciatus [2]; insect exposure after 4 hours): 100%
- % Knock-down 8 h (Culex quinquefasciatus [2]; insect exposure after 4 hours): 100%
- Knock-down time KT10 (Culex quinquefasciatus [2]; insect exposure after 4 hours): 10 min
- Knock-down time KT50 (Culex quinquefasciatus [2]; insect exposure after 4 hours): 14 min
- Knock-down time KT90 (Culex quinquefasciatus [2]; insect exposure after 4 hours): 20 min
- % mortality 24 h (Aedes aegypti [3]; insect exposure after 0 hours): 100%
- % Knock-down 8 h (Aedes aegypti [3]; insect exposure after 0 hours): 100%
- Knock-down time KT10 (Aedes aegypti [3]; insect exposure after 0 hours): 23 min
- Knock-down time KT50 (Aedes aegypti [3]; insect exposure after 0 hours): 30 min
- Knock-down time KT90 (Aedes aegypti [3]; insect exposure after 0 hours): 39 min
- % mortality 24 h (Aedes aegypti [3]; insect exposure after 2 hours): 100%
- % Knock-down 8 h (Aedes aegypti [3]; insect exposure after 2 hours): 100%
- Knock-down time KT10 (Aedes aegypti [3]; insect exposure after 2 hours): 7 min
- Knock-down time KT50 (Aedes aegypti [3]; insect exposure after 2 hours): 9 min
- Knock-down time KT90 (Aedes aegypti [3]; insect exposure after 2 hours): 15 min
- % mortality 24 h (Aedes aegypti [3]; insect exposure after 4 hours): 100%
- % Knock-down 8 h (Aedes aegypti [3]; insect exposure after 4 hours): 100%
- Knock-down time KT10 (Aedes aegypti [3]; insect exposure after 4 hours): 6 min
- Knock-down time KT50 (Aedes aegypti [3]; insect exposure after 4 hours): 8 min
- Knock-down time KT90 (Aedes aegypti [3]; insect exposure after 4 hours): 14 min
- % mortality 24 h (Culex quinquefasciatus [4]; insect exposure after 0 hours): 100%
- % Knock-down 8 h (Culex quinquefasciatus [4]; insect exposure after 0 hours): 100%
- Knock-down time KT10 (Culex quinquefasciatus [4]; insect exposure after 0 hours): 26 min
- Knock-down time KT50 (Culex quinquefasciatus [4]; insect exposure after 0 hours): 30 min
- Knock-down time KT90 (Culex quinquefasciatus [4]; insect exposure after 0 hours): 35 min
- % mortality 24 h (Culex quinquefasciatus [4]; insect exposure after 2 hours): 100%
- % Knock-down 8 h (Culex quinquefasciatus [4]; insect exposure after 2 hours): 100%
- Knock-down time KT10 (Culex quinquefasciatus [4]; insect exposure after 2 hours): 11 min
- Knock-down time KT50 (Culex quinquefasciatus [4]; insect exposure after 2 hours): 16 min
- Knock-down time KT90 (Culex quinquefasciatus [4]; insect exposure after 2 hours): 24 min
- % mortality 24 h (Culex quinquefasciatus [4]; insect exposure after 4 hours): 100%
- % Knock-down 8 h (Culex quinquefasciatus [4]; insect exposure after 4 hours): 100%
- Knock-down time KT10 (Culex quinquefasciatus [4]; insect exposure after 4 hours): 11 min
- Knock-down time KT50 (Culex quinquefasciatus [4]; insect exposure after 4 hours): 16 min
- Knock-down time KT90 (Culex quinquefasciatus [4]; insect exposure after 4 hours): 20 min

SMILES: C=CC=C[C@@H]1[C@@H](C(=O)OCc2c(F)c(F)c(COC)c(F)c2F)C1(C)C (mixture of isomers) [Example 8, 2,3,5,6-tetrafluoro-4-methoxymethyl benzyl(1R,3R)-3-((E/Z)-Buta-1,3-dienyl)-2,2-dimethylcyclopropane-1-carboxylate]
- % mortality 24 h (Aedes aegypti [1]; insect exposure after 0 hours): 100%
- % Knock-down 8 h (Aedes aegypti [1]; insect exposure after 0 hours): 100%
- Knock-down time KT10 (Aedes aegypti [1]; insect exposure after 0 hours): 22 min
- Knock-down time KT50 (Aedes aegypti [1]; insect exposure after 0 hours): 31 min
- Knock-down time KT90 (Aedes aegypti [1]; insect exposure after 0 hours): 40 min
- % mortality 24 h (Aedes aegypti [1]; insect exposure after 2 hours): 100%
- % Knock-down 8 h (Aedes aegypti [1]; insect exposure after 2 hours): 100%
- Knock-down time KT10 (Aedes aegypti [1]; insect exposure after 2 hours): 12 min
- Knock-down time KT50 (Aedes aegypti [1]; insect exposure after 2 hours): 29 min
- Knock-down time KT90 (Aedes aegypti [1]; insect exposure after 2 hours): 41 min
- % mortality 24 h (Aedes aegypti [1]; insect exposure after 4 hours): 100%
- % Knock-down 8 h (Aedes aegypti [1]; insect exposure after 4 hours): 100%
- Knock-down time KT10 (Aedes aegypti [1]; insect exposure after 4 hours): 18 min
- Knock-down time KT50 (Aedes aegypti [1]; insect exposure after 4 hours): 32 min
- Knock-down time KT90 (Aedes aegypti [1]; insect exposure after 4 hours): 50 min
- % mortality 24 h (Culex quinquefasciatus [2]; insect exposure after 0 hours): 83%
- % Knock-down 8 h (Culex quinquefasciatus [2]; insect exposure after 0 hours): 100%
- Knock-down time KT10 (Culex quinquefasciatus [2]; insect exposure after 0 hours): 35 min
- Knock-down time KT50 (Culex quinquefasciatus [2]; insect exposure after 0 hours): 44 min
- Knock-down time KT90 (Culex quinquefasciatus [2]; insect exposure after 0 hours): 70 min
- % mortality 24 h (Culex quinquefasciatus [2]; insect exposure after 2 hours): 70%
- % Knock-down 8 h (Culex quinquefasciatus [2]; insect exposure after 2 hours): 100%
- Knock-down time KT10 (Culex quinquefasciatus [2]; insect exposure after 2 hours): 39 min
- Knock-down time KT50 (Culex quinquefasciatus [2]; insect exposure after 2 hours): 50 min
- Knock-down time KT90 (Culex quinquefasciatus [2]; insect exposure after 2 hours): 68 min
- % mortality 24 h (Culex quinquefasciatus [2]; insect exposure after 4 hours): 61%
- % Knock-down 8 h (Culex quinquefasciatus [2]; insect exposure after 4 hours): 100%
- Knock-down time KT10 (Culex quinquefasciatus [2]; insect exposure after 4 hours): 39 min
- Knock-down time KT50 (Culex quinquefasciatus [2]; insect exposure after 4 hours): 53 min
- Knock-down time KT90 (Culex quinquefasciatus [2]; insect exposure after 4 hours): 66 min
